From ChEMBL document CHEMBL3507680, “University of Dundee, Gates Library screen for HepG2 cell viability”

Experiment: Human HepG2 cell viability assay in 384 well format
Format: toxicity, cell-based
Design: dose 125 nL, time 70.5 hour; cytotoxicity at 70.5 h: concentration not given beside the values
Settings: HepG2 cells, read-out: Inhibition

| SMILES | cytotoxicity at 70.5 h [%] |
| --- | --- |
| Cc1nc[nH]c1-c1nccn1-c1cccc(CN2CCCC2)c1 | 13 |
| CCOC(=O)CNC(=O)N1CCOC(Cc2ccc(OC)cc2)C1 (stereo not drawn) | -0.738 |
| CC(C)C1CN(S(=O)(=O)N(C)C)CCCN1Cc1ccc(F)cc1 (stereo not drawn) | 2.12 |
| c1ccc(CCCC2CN(Cc3ncc[nH]3)CCO2)cc1 (stereo not drawn) | -6.86 |
| O=C(c1ccc(S(=O)(=O)NCc2ccon2)cc1)N1CCCCCC1 | -7.49 |
| Cc1cccnc1[C@H](C)Nc1nc(-c2cccnc2)nc2c1CNC2 | -8.07 |
| COc1ccc2c(=O)n(CC3CCCN(C)C3)ccc2c1OC (stereo not drawn) | 10.5 |
| Cc1nn(C2CCCC2)c2nc(C(C)(C)CN3CCN(C)CC3)[nH]c12 | -2.47 |
| CC(C)c1nccn1C(C)C(=O)N1CCN(c2ccccc2Cl)CC1 (stereo not drawn) | -4.99 |
| CCCN1CCN(C(=O)c2cc[nH]n2)[C@H]2CS(=O)(=O)C[C@H]21 | -11.3 |
| O=C(O)c1cc(C2=CCCCC2)cc(S(=O)(=O)NCc2ccccn2)c1 | -8.44 |
| CC(C)c1nnc(N2C[C@@H]3CC[C@H](C2)N(CC2CCC2)C3)s1 | -2.56 |
| CC(C)c1ncc(CN2C[C@@H](CN3CCCC3)[C@@H](CO)C2)cn1 | 0.637 |
| COc1cc(N2C[C@@H]3CC[C@H](C2)N(CC2CCC2)C3=O)ncn1 | -3.49 |
| O=C1CCN(Cc2cnc3c(-c4ccccc4)cnn3c2)CCN1 | -9.5 |
| Cc1ccc(OCC2CCCN(c3nc(CO)cs3)C2)cc1 (stereo not drawn) | -0.763 |
| O=C(NCc1cnn2cccnc12)c1cccc(CC2CCNCC2)c1 | 5.06 |
| CC(C)=CCCC(C)CN1CCC(n2cc(CO)nn2)CC1 (stereo not drawn) | -4.45 |
| CN(CC(=O)N1CCOCC(CO)C1)Cc1ccc(F)cc1 (stereo not drawn) | -12.7 |
| O=C(C1CCOC1)N1CCC(Cn2cc(-c3ccsc3)nn2)CC1 (stereo not drawn) | -11.1 |
| COc1ncccc1-c1ncccc1NC(=O)C(C)C | -6.31 |
| CCn1c(CC2CCN(S(=O)(=O)N3CCCCC3)CC2)nn(C)c1=O | -3.16 |
| O=C(N1CCCC1)N1CCCC(c2nccn2Cc2ccncc2)C1 (stereo not drawn) | -8.72 |
| Cc1nnc(NC(=O)N2CCN(Cc3ccc(F)cc3)C(=O)C2)s1 | 1.21 |
| CN(C)c1nc(-c2ccncc2)nc2c1CCN(C(=O)[C@H](N)CO)C2 | -6.08 |
| Cc1ccc(C(=O)N2CCC(c3nccn3C(C)C)CC2)c(=O)[nH]1 | -6.37 |

| SMILES | cytotoxicity at 70.5 h [%] |
| --- | --- |
| O=C(O)C1(n2cccn2)CCN(c2nc(-c3ccccc3)no2)CC1 | 0.502 |
| O=C(NCCc1ccccc1)c1cn(CCNCc2cccnc2)nn1 | -6.19 |
| CCCN1CCN(Cc2cn(CCC(N)=O)c3ccccc23)CC1 | -3.42 |
| Cc1cccnc1C(Nc1nccc(C2CCCC2)n1)C1CC1 (stereo not drawn) | 0.357 |
| CCC(=O)c1ccc(OCC(=O)NC(C)c2nnc(C)[nH]2)cc1 (stereo not drawn) | -3.79 |
| Cc1nc(NCC23CCCN2CCC3)cc(C2CCCNC2)n1 (stereo not drawn) | -4.8 |
| N[C@@H]1CCN(Cc2ccccc2CS(=O)(=O)c2ccccc2)C[C@H]1O | -8.1 |
| Cc1ccc(C#N)c(N2CCCC(c3nccn3Cc3cscn3)C2)n1 (stereo not drawn) | -3.22 |
| Cc1nnc(CN2CCC3(CCC(=O)N(C4CC4)C3)CC2)o1 | 11.6 |
| Cc1cc(-c2nn(C)c(Cl)c2CN2CC[C@H](CO)[C@@H](O)C2)no1 | 8.05 |
| COC(=O)c1cc2n(n1)CCCN(C(=O)Cc1c[nH]c3ccccc13)C2 | -13.9 |
| COc1cc(-n2ccnc2-c2ccc(C(=O)O)s2)ccc1NC(C)=O | -7.67 |
| Cc1ccc(C2(O)CCN(C(=O)c3cccc(S(C)(=O)=O)c3)CC2)nc1 | -4.42 |
| CC(C)N1CCCC2(CCN(Cc3noc(C4CCCC4)n3)C2)C1=O (stereo not drawn) | 11 |
| CCc1cnc(N)nc1NCCCn1cc(Cl)cn1 | -5.81 |
| COc1ccnc(N2CCC3(CCCN(C(C)C)C3=O)C2)n1 (stereo not drawn) | -1.71 |
| O=C(c1ccc(O)cn1)N1CCOC(c2ccc(Cl)c(Cl)c2)C1 (stereo not drawn) | -3.33 |
| CC(CC(F)(F)F)NCc1ccccc1-n1ccnc1 (stereo not drawn) | -10.9 |
| c1ccc(-c2nc3c(c(NCCCn4cncn4)n2)CCNCC3)nc1 | -13.5 |
| CC(C)(C)c1nc(CN2CCC3(CCCO3)CCC2=O)no1 (stereo not drawn) | -5.98 |
| COc1ccc(F)c(CN2CCCC(c3cc(O)nc(C)n3)C2)c1 (stereo not drawn) | -3.96 |
| Cc1ncsc1CCN(C)C(=O)CN1CCOC1=O | 8.27 |
| O=c1cc(CN2CC[C@H]3CC[C@@H](C2)N3)c2cccc3c2n1CCC3 | -14.4 |
| COCCN1CC2(CCCN(c3ncc(Cl)cc3F)C2)CCC1=O (stereo not drawn) | 3.19 |
| Cc1cc(N2CCC(CO)(CC3CCCCO3)CC2)c2ccccc2n1 (stereo not drawn) | 2.86 |
| CN(C)c1nc2c(c(N(C)C)n1)CCN(C(=O)CN1C[C@@H]3CC[C@H]1C3)C2 | -6.59 |

| SMILES | cytotoxicity at 70.5 h [%] |
| --- | --- |
| CC1(C)OC(=O)N(CCCC(=O)c2ccc(F)cc2)C1=O | -16.8 |
| COc1ccccc1-n1cc(CN2CCN(C)[C@@H]3CS(=O)(=O)C[C@@H]32)cn1 | -7.42 |
| Cc1ccc(CNC(=O)CCN2CCOC(C(F)(F)F)C2)cc1 (stereo not drawn) | -2.06 |
| CC(CN1CCCC1)C(=O)NCC1CCN(c2cnn(C)c(=O)c2)CC1 (stereo not drawn) | -5.06 |
| Cc1ccc(Oc2ncccc2CNS(=O)(=O)N2CCOCC2)cn1 | -4.6 |
| CC(C)n1ccnc1C1CCCN(c2ccncc2F)C1 (stereo not drawn) | -5.94 |
| COCC1CCN(S(=O)(=O)NCC2COc3ccccc3C2)CC1 (stereo not drawn) | 13.9 |
| COc1ccc2c(C)c(C(=O)N3CCC(NC(C)=O)C3)oc2c1 (stereo not drawn) | -3.36 |
| Cc1c(Cl)c(C(=O)N2C[C@@H](C(=O)O)[C@H](c3cccnc3)C2)nn1C | 8.35 |
| Cc1ccc2c(C)c(C(=O)NCCc3csc(N)n3)oc2c1 | 7.44 |
| Cc1ccc(C2(CN(C)Cc3sccc3C)CCNCC2)nc1 | 10.6 |
| Cc1ccc(OC2CCN(C(=O)Cc3c(C)[nH]c(=O)[nH]c3=O)CC2)cc1 | -10.2 |
| CCc1nc2c(N3CCCC(c4nccn4CCOC)C3)ncnc2o1 (stereo not drawn) | 26.1 |
| CCCn1cnnc1CNC(=O)CC1C(=O)NCCN1CC=C(C)C (stereo not drawn) | -0.65 |
| O=C(c1ccc(Cl)s1)N1CCCn2nc(CN3CC[C@H](F)C3)cc2C1 | -10.2 |
| CCCn1ncc(CN2CCCC(C(=O)c3ccc(Cl)cc3C)C2)c1C (stereo not drawn) | -7.11 |
| Cc1cccc(=O)n1CCCNc1nc(N(C)C)nc2c1CCNCC2 | -3.24 |
| Cc1c(NC(=O)c2ncn[nH]2)cccc1C(=O)NC(C)(C)C | -12.5 |
| Cc1nc(-c2c(-c3ccccc3)ncn2CCCN2CCOCC2)c[nH]1 | -8.17 |
| Cc1ccc(C(=O)NC2CCN(C)CC2)cc1N(C)S(C)(=O)=O | -6.98 |
| COc1ccccc1Oc1ncccc1CNC(=O)[C@@H](N)CCO | 8.7 |
| CCCn1ncc(-c2ccnc(N[C@@H]3C[C@@H]4CC[C@H]3C4)n2)c1C | -2.1 |
| CC(=O)c1cnc(NCC2OCCc3ccccc32)nc1C (stereo not drawn) | -9.22 |
| CC(c1ccncn1)N(C)Cc1cc(O)c2cc(F)ccc2n1 (stereo not drawn) | -8.14 |
| COCCN1C(=O)[C@H]2CC[C@@H]1CN(c1nccc(C)n1)C2 | -9.1 |
| CC(C(N)=O)N1CCc2onc(-c3cccc(F)c3)c2C1 (stereo not drawn) | -12.5 |
